Experimental data as given in patent US20220220135A1 (BAR-ILAN UNIVERSITY, priority 2019, published 2022).

Tests used:
NPP1 [1] = target: T1, NPP1 (Homo sapiens, UniProt P22413); assay: Inhibition of human NPP1, ATP as substrate (analogues 9-12); assay type: biochemical; conditions: ATP (100 μM) as the substrate
T1 sequence (P22413 1-925): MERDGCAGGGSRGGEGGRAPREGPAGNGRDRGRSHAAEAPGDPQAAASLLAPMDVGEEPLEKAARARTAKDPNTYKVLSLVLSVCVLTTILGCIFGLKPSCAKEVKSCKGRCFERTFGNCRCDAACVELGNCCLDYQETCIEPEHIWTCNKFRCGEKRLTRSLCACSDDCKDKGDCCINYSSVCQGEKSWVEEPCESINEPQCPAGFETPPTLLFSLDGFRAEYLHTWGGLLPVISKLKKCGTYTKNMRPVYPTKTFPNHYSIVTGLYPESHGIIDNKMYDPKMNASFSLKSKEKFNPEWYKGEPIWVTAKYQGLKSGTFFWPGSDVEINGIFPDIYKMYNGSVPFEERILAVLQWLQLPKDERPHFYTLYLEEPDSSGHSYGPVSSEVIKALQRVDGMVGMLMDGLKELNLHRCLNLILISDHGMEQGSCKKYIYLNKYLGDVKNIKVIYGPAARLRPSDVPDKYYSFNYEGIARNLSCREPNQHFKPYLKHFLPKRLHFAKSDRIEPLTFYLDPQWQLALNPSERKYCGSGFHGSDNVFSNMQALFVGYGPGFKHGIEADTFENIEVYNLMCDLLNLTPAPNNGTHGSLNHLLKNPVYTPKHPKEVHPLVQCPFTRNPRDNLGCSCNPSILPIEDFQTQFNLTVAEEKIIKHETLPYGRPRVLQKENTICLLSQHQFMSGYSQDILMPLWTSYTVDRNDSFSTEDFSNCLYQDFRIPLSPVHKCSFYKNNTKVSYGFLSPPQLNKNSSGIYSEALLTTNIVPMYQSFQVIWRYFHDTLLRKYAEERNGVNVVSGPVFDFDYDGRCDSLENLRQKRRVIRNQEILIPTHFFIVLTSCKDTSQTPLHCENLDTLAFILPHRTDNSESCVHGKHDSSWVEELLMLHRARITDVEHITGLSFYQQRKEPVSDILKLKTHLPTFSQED
Procedure: FIG. 2: Inhibition of NTPDases and NPPs by analogues 9-12 using as substrates ATP (100 μM) for NTPDase1,2,3,8 and pNP-TMP (100 μM) for NPP1,3 (Panel A); and ATP (100 μM) was used as the substrate for NPP1 (Panel B);
At least 2 independent experiments were performed. In panel A, the activity with 100 μM ATP was set as 100%, which was 287±31, 395±67, 278±22, 119±26 nmol of Pi·min−1·mg of protein−1 for human NTPDase1, -2, -3 and -8, respectively, and the activity with 100 μM pNP-TMP was set as 100% which was 67±5, 21±1 nmol of p-nitrophenol·min−1·mg of protein−1 for human NPP1 and NPP3, respectively. In panel B, the activity with 100 μM ATP was set as 100% which was 34±7 nmol of PPi·min−1·mg of protein−1 for NPP1.

human CD39 = target: T2, human CD39 (Homo sapiens, UniProt P49961); assay: Inhibition of human CD39, 0.5 μM PSB-170621A as substrate; assay type: biochemical; conditions: 0.5 μM PSB-170621A as a substrate; n = 3
T2 sequence (P49961 1-510): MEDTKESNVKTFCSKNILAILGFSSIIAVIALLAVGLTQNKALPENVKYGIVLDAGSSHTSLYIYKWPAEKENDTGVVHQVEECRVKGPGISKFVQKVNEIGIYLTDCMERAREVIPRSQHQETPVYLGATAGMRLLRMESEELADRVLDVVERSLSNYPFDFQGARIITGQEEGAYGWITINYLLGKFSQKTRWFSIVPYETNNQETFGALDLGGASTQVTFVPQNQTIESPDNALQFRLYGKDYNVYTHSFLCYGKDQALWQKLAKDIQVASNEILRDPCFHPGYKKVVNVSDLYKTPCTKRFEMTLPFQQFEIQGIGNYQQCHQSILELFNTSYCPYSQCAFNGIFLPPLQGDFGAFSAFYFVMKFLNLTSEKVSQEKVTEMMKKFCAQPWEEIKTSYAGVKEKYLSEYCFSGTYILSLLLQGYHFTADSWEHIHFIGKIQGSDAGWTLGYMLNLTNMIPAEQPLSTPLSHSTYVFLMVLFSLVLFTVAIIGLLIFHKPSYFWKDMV

NPP1 [2] = target: T1, NPP1; assay: Inhibition of human NPP1, 100 μM p-Nph-5′-TMP as substrate (Tables 5, 6)
human P2Y2R = target: T3, human P2Y2R (Homo sapiens, UniProt P41231); assay: Calcium mobilization in 1321N1 astrocytoma cells expressing human P2Y2R; assay type: cell-based
T3 construct: expressed in transfected cells; host or cells: 1321N1 astrocytoma cells
T3 sequence (P41231 whole entry): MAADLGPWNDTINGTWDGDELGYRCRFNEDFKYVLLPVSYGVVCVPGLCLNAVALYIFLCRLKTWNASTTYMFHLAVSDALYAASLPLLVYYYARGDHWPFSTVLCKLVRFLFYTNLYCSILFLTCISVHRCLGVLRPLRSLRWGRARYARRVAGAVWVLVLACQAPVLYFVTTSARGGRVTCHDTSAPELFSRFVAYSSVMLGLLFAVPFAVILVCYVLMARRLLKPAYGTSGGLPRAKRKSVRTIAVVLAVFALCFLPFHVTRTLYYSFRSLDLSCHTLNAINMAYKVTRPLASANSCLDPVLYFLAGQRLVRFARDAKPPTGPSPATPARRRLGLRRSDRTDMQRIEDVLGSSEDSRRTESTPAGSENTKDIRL
Procedure: Given the structural resemblance of 106-109 to the natural ligands of P2Y receptors, adenine and uracil nucleotides as natural substrates, were assessed for agonist potency on the human P2Y1, P2Y2, P2Y4, and P2Y6 receptor. To evaluate NPP1 selectivity of analogs 106-109, they were tested for their ability to activate of the uridine-nucleotide sensitive human recombinant P2Y1,2,4,6-receptors. The agonist potencies of this series of nucleotide analogues on the Gq protein-coupled human P2Y1R, P2Y2R, P2Y4R, and P2Y6R was determined by assessing its ability to induce calcium mobilization in stably transfected 1321N1 astrocytoma cells (Table 8). The nucleotide analogues were found in calcium mobilization assays to activate the P2Y2R with mid-micromolar potency.

| Compound | inhibition of human NPP1 activity (NPP1 [1]) | % inhibition ± SEM, human CD39 (human CD39) [%] | Ki (NPP1 [2]) [nM] | inhibition at 10 µM (NPP1 [2]; read-out: % inhibition ± SEM at 10 μM, human NPP1) [%] | % activation at 10 μM, P2Y2 (human P2Y2R) [%] |
| --- | --- | --- | --- | --- | --- |
| O=c1ccn([C@@H]2O[C@H](COP(=S)(S)OP(=O)(O)OP(=O)(O)OP(=S)(S)OC[C@H]3O[C@@H](n4ccc(=O)[nH]c4=O)[C@H](O)[C@@H]3O)[C@@H](O)[C@H]2O)c(=O)[nH]1 (some centres unmarked) [Analogue 12] | effectively blocked | – | – | – | – |
| Nc1ncnc2c1ncn2COCCOP(=S)(S)OP(=O)(O)O (centres unmarked) [compound 106] | – | 14 ± 1 | 1810 | 67 ± 1 | 32 ± 18 |
